# Like-named read-outs stand apart in the source and are kept apart here. Marks after values point to notes of the source that are not given here.
# Key:
# NIH/Swiss female mice = experiment: basal glucose lowering assay (Oral Glucose Tolerance Test; OGTT); assay type: in vivo, mouse; details: IP at t=-5 min, 4-hour fasted mice, glucose gavage […], blood glucose at t=30 minutes
# Method: Polypeptide Conjugates and parent compounds were analyzed in an in vivo basal glucose lowering assay. This assay reflects the conjugate polypeptide's ability to enhance insulin-mediated glucose clearance of orally administered glucose challenge (Oral Glucose Tolerance Test; OGTT). The OGTT is used to diagnose diabetes, although the simpler fasting plasma glucose test, which measures a subject's plasma glucose level after fasting for at least eight hours, is preferred. The following procedure was used: Test compound at various concentrations was injected intraperitoneally (IP) at t=−5 min to 4-hour fasted NIH/Swiss female mice. Glucose gavage (1.5 g/kg) was given at t=0. Sample was taken at t=30 minutes as tail blood glucose using a OneTouch® Ultra® (LifeScan, Inc., Milpitas, Calif.). Significant effects were identified by ANOVA (p<0.05), followed by Dunnett's post test using GraphPad Prism version 4.00 for Windows (GraphPad Software, San Diego Calif.).
# [1] = acute reduction of food intake; assay type: in vivo
# [2] = system: diet-induced obese (DIO) male Sprague Dawley rats; experiment: DIO rat 4-week sc infusion: hormone and metabolite analyses (HbA1c, insulin, lipids, glucose); assay type: in vivo; details: for Insulin 14 day / Insulin 28 day: fed state plasma; for Glucose / HDL cholesterol / Total cholesterol / Triglycerides: plasma after 28 days
# Method: (§1) Various metabolic and PK parameters were evaluated.
# (§2) Study Design. The Polypeptide Conjugates were tested relative to vehicle (50% DMSO in sterile water) and parent compounds alone and in combination (see Table 1).
# (§3) Food intake and body weight were measured weekly. Body composition was assessed on day −1 and day 28 using an NMR instrument (Echo Medical Systems, Houston, Tex.). Adiposity (percent fat mass) was defined as the amount of fat mass relative to body weight (fat mass/body weight×100). Blood was collected via tail vein on day 14. On day 28 a sample of blood was drawn via the jugular vein and animals were euthanized by isoflurane overdose. Mini-pumps were immediately removed, animals were subjected to a brief NMR scan, and tissues were collected for future histological examination and preliminary toxicological assessment.
# (§4) Statistical Analysis. Data were analyzed using one-way analysis of variance (ANOVA) with Newman-Keuls post-hoc comparisons. Significance was assumed for p<0.05. Graphs were generated using Prism 4 for Windows (Graphpad Software, San Diego, Calif.). All data points are expressed as mean±SEM.
# (§5) Hormone and metabolite analyses. Plasma levels of study drug were measured at day 14 and termination by an ELISA. Whole blood percent hemoglobin A1c (% HbA1c), plasma triglyceride, total cholesterol, HDL cholesterol and plasma glucose at day 14 and at termination were measured using an Olympus bioanalyzer (Olympus America Diagnostics). Plasma insulin levels at day 14 and at termination were analyzed by an ELISA kit (Rat/Mouse Insulin ELISA, Linco Diagnostics).
# Plasma parameters. The effects of the parent and Polypeptide Conjugate compounds on the following plasma parameters were determined: percent hemoglobin A1c (HbA1c), fed state plasma insulin, and concentration of the Polypeptide Conjugate in plasma, at 14 and 28 days.
# [3] = system: diet-induced obese (DIO) male Sprague Dawley rats; experiment: DIO rat 4-week constant sc infusion: body weight; assay type: in vivo
# Method: as §1, §2, §3, §4
# male Sprague Dawley rats = experiment: delay of gastric emptying (acetaminophen appearance in plasma); assay type: in vivo, rat; details: for Percent Inhibition of Gastric Emptying 4 hr / Percent Inhibition of Gastric Emptying 6 hr / Percent Inhibition of Gastric Emptying 8 hr: 1 nmol/kg single sc injection
# Method: Polypeptide Conjugates and parent compounds were analyzed for their ability to delay gastric emptying in rats. […] Rats then received an oral gavage of 33 mg acetaminophen/1 ml Orablend (Paddock Laboratories, Inc., MN USA) at t=3.5 hr, 5.5 hr or 7.5 hr post-injection. Blood was collected for measurement of acetaminophen at 4 hr, 6 hr or 8 hr after SC injection. Gastric emptying was assessed by the appearance of acetaminophen in plasma 30 min after oral gavage.
# ob/ob mice = experiment: 28 days of exposure in ob/ob mice (obese and diabetic); assay type: in vivo, mouse
# [4] = system: diet-induced obese (DIO) male Sprague Dawley rats; experiment: DIO rat 4-week sc infusion: body composition by NMR; assay type: in vivo
# Method: as §1, §2, §3, §4
# To correct for loss of body weight, reductions in fat and lean mass were adjusted for terminal body weight to calculate the change in adiposity (percent fat mass) and change in percent lean mass.
# [5] = DIO rats, sc infusion
# Method: as §1, §2, §3, §5
# [6] = system: diet-induced obese (DIO) male Sprague Dawley rats; experiment: DIO rat 4-week constant sc infusion: cumulative food intake; assay type: in vivo; details: highest dose tested (100 nmol/kg/d)
# Method: as §1, §2, §3, §4
# [7] = human plasma, 5 hr incubation; detection limit 10%
# [8] = human kidney brush border membrane matrices, 5 hr incubation; detection limit 10%
# [9] = in vivo blood calcium lowering (amylin agonist property)
# rats = experiment: acute kaolin intake (pica, nausea) and chow intake in rats; assay type: in vivo, rat; details: 24 hr post injection
# Method: To investigate possible nausea effects of the conjugate polypeptide, acute kaolin intake was measured in rats. Pica behavior (ingestion of dirt/clay) is a marker of nausea in rodents, typically associated with reduced food intake and weight loss. Pica can be assessed by measuring intake of the synthetic clay kaolin. […] Rats were acclimated to kaolin for 3 days as kaolin clay mixed in with regular chow. A 4 hr and a 24 hr baseline kaolin and chow intake were then measured. Subsequently, rats were fasted for approximately 16 hrs after which test compound was injected at the dose indicated below. At 24 hr post injection chow and kaolin consumption was measured.
# amylin receptor = biological target: T1, amylin receptor (Homo sapiens, UniProt P30988); experiment: binding selectivity for amylin receptor against the CGRP receptor
# T1 sequence (P30988 25-474): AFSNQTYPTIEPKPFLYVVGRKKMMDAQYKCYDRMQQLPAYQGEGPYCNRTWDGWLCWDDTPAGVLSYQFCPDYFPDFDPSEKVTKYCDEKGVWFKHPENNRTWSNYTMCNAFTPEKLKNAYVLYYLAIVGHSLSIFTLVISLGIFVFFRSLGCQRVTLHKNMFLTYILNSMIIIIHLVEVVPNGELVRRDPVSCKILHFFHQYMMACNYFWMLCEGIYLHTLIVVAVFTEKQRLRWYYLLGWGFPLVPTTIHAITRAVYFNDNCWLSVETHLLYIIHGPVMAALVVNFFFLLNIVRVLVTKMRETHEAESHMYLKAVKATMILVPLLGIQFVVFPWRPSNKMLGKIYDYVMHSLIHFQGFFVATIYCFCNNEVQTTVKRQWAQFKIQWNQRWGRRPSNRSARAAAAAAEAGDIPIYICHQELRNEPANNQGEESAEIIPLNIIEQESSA
# calcitonin receptors = biological target: T2, calcitonin receptors (Homo sapiens, UniProt P30988); experiment: binding selectivity for calcitonin receptors against the CGRP receptor
# T2 sequence (P30988 25-474): T1 sequence (P30988 25-474)
sequence,measurement,setting,value
HGEGTFTSDLSKQLEEEAVRLFIEWLKQGGPSKEIISGGGKCNTATCVLGRLSQELHRLQ TYPRTNTGSNTY-NH2 [Cmpd 2A],ED50 in OGTT,NIH/Swiss female mice,1.4 nmol/kg
same,potency at reducing food intake acutely compared with Cmpd 3A,[1],more potent
same,HbA1c 14 day,[2]; 3 nmol/kg/day,4.9 ± 0.1%
same,Insulin 14 day,[2]; 3 nmol/kg/day,1.8 ± 0.6^b ng/mL
same,HbA1c 28 day,[2]; 3 nmol/kg/day,4.6 ± 0.1%
same,Insulin 28 day,[2]; 3 nmol/kg/day,2.2 ± 0.9 ng/mL
same,Glucose,[2]; 3 nmol/kg/day,132 ± 9 mg/dL
same,HDL cholesterol,[2]; 3 nmol/kg/day,33 ± 2 mg/dL
same,Total cholesterol,[2]; 3 nmol/kg/day,116 ± 8 mg/dL
same,Triglycerides,[2]; 3 nmol/kg/day,295 ± 75^b mg/dL
same,HbA1c 14 day,[2]; 10 nmol/kg/day,4.9 ± 0.1^b %
same,Insulin 14 day,[2]; 10 nmol/kg/day,1.5 ± 0.2^b ng/mL
same,HbA1c 28 day,[2]; 10 nmol/kg/day,4.6 ± 0.1%
same,Insulin 28 day,[2]; 10 nmol/kg/day,1.0 ± 0.2 ng/mL
same,Glucose,[2]; 10 nmol/kg/day,115 ± 6 mg/dL
same,HDL cholesterol,[2]; 10 nmol/kg/day,33 ± 5 mg/dL
same,Total cholesterol,[2]; 10 nmol/kg/day,115 ± 14 mg/dL
same,Triglycerides,[2]; 10 nmol/kg/day,146 ± 41^b mg/dL
same,HbA1c 14 day,[2]; 30 nmol/kg/day,4.8 ± 0.1%
same,Insulin 14 day,[2]; 30 nmol/kg/day,1.8 ± 0.5^b ng/mL
same,HbA1c 28 day,[2]; 30 nmol/kg/day,4.6 ± 0.1%
same,Insulin 28 day,[2]; 30 nmol/kg/day,0.8 ± 0.1 ng/mL
same,Glucose,[2]; 30 nmol/kg/day,111 ± 2 mg/dL
same,HDL cholesterol,[2]; 30 nmol/kg/day,32 ± 1 mg/dL
same,Total cholesterol,[2]; 30 nmol/kg/day,112 ± 4 mg/dL
same,Triglycerides,[2]; 30 nmol/kg/day,128 ± 25^b mg/dL
same,HbA1c 14 day,[2]; 100 nmol/kg/day,4.8 ± 0.1%
same,Insulin 14 day,[2]; 100 nmol/kg/day,1.2 ± 0.2^b ng/mL
same,HbA1c 28 day,[2]; 100 nmol/kg/day,4.5 ± 0.1%
same,Insulin 28 day,[2]; 100 nmol/kg/day,0.7 ± 0.1 ng/mL
same,Glucose,[2]; 100 nmol/kg/day,110 ± 4 mg/dL
same,HDL cholesterol,[2]; 100 nmol/kg/day,30 ± 1 mg/dL
same,Total cholesterol,[2]; 100 nmol/kg/day,107 ± 3 mg/dL
same,Triglycerides,[2]; 100 nmol/kg/day,139 ± 17^b mg/dL
same,potency at reducing body weight via sustained infusion relative to Cmpd 3A,[3]; DIO rats,several fold more potent
same,four week vehicle-corrected weight loss,"[3]; DIO rats, sc infusion, 100 nmol/kg/d",−31.5±2.7%
same,Maximal weight loss,"[3]; DIO rats, sc infusion, 100 nmol/kg/d group",−27.8±5.3%
same,body weight over the 28 day treatment relative to vehicle,"[3]; DIO rats, sc infusion, doses of Table 1 (conjugates 3, 10, 30 and 100 nmol/kg/d), p<0.05",dose-dependently reduced body weight significantly
same,Percent Inhibition of Gastric Emptying 4 hr,male Sprague Dawley rats,79
same,Percent Inhibition of Gastric Emptying 6 hr,male Sprague Dawley rats,49
same,Percent Inhibition of Gastric Emptying 8 hr,male Sprague Dawley rats,4
same,HbA1c,ob/ob mice,HbA1c reduction
same,body weight,ob/ob mice,body weight loss
same,fasted blood glucose,ob/ob mice,fasted blood glucose-lowering
same,Terminal Fat Mass,"[4]; 3 nmol/kg/d, day 28","71.4 ± 12.9^a,b g"
same,Terminal Lean Mass,"[4]; 3 nmol/kg/d, day 28","330.5 ± 7.3^a,b g"
same,Terminal Fat Mass,"[4]; 10 nmol/kg/d, day 28","35.8 ± 7.7^c,d g"
same,Terminal Lean Mass,"[4]; 10 nmol/kg/d, day 28",280.6 ± 22.6^b g
same,Terminal Fat Mass,"[4]; 30 nmol/kg/d, day 28","32.4 ± 3.8^c,d g"
same,Terminal Lean Mass,"[4]; 30 nmol/kg/d, day 28","306.5 ± 13.2^a,b g"
same,Terminal Fat Mass,"[4]; 100 nmol/kg/d, day 28",12.7 ± 4.3^d g
same,Terminal Lean Mass,"[4]; 100 nmol/kg/d, day 28",277.8 ± 17.8^b g
same,change in adiposity (percent fat mass),"[4]; 100 nmol/kg/d, day 28",−12.2±1.3%
same,adiposity compared to vehicle controls,"[4]; all doses of Table 1, day 28",significantly reduced
same,percent lean mass relative to vehicle controls,"[4]; all doses, day 28",did not alter percent lean mass
same,plasma drug level (Cmpd 2A or Cmpd 1A) 14 day,[5]; 3 nmol/kg/day,15 ± 6^a ng/mL
same,plasma drug level (Cmpd 2A or Cmpd 1A) 28 day,[5]; 3 nmol/kg/day,65 ± 35^a ng/mL
same,plasma drug level (Cmpd 2A or Cmpd 1A) 14 day,[5]; 10 nmol/kg/day,48 ± 16^a ng/mL
same,plasma drug level (Cmpd 2A or Cmpd 1A) 28 day,[5]; 10 nmol/kg/day,345 ± 67^a ng/mL
same,plasma drug level (Cmpd 2A or Cmpd 1A) 14 day,[5]; 30 nmol/kg/day,65 ± 7^a ng/mL
same,plasma drug level (Cmpd 2A or Cmpd 1A) 28 day,[5]; 30 nmol/kg/day,540 ± 232^a ng/mL
same,plasma drug level (Cmpd 2A or Cmpd 1A) 14 day,[5]; 100 nmol/kg/day,284 ± 79^b ng/mL
same,plasma drug level (Cmpd 2A or Cmpd 1A) 28 day,[5]; 100 nmol/kg/day,1985 ± 717^b ng/mL
same,total food intake relative to single parent peptide administration,[6],significantly reduced
same,metabolites detected,[7],No metabolites were detected
same,metabolites detected,[8],No metabolites were detected
same,blood calcium,[9],lower blood calcium
same,Inhibited food intake,rats; 30 nmol/kg/d,Yes ~68%
same,Kaolin intake,rats; 30 nmol/kg/d,0.3 g
HGEGTFTSDLSKQMEEEAVRLFIEWLKNGGGKCNTATCVLGRLSQELHRLQTYPRTNT GSNTY-NH2 [Cmpd 3A],ED50 in OGTT,NIH/Swiss female mice,6 nmol/kg
same,weight loss,[3]; 100 nmol/kg/d of previous reference conjugates,~20%
same,Percent Inhibition of Gastric Emptying 4 hr,male Sprague Dawley rats,33
same,Percent Inhibition of Gastric Emptying 6 hr,male Sprague Dawley rats,0
same,Percent Inhibition of Gastric Emptying 8 hr,male Sprague Dawley rats,0
same,inhibition of gastric emptying,male Sprague Dawley rats; at the time point and doses tested,did not significantly inhibit gastric emptying
same,selectivity for amylin receptor against the CGRP receptor,amylin receptor,> 100 fold
same,Inhibited food intake,rats; 15 nmol/kg/d,Yes ~20%
same,Kaolin intake,rats; 15 nmol/kg/d,0.5 g
same,selectivity for calcitonin receptors against the CGRP receptor,calcitonin receptors,> 280 fold

# — US20140066370A1, “Polypeptide Conjugate” (priority 2009, published 2014)
